Assays:
Type in all cases: biochemical
[1] = molecular target: T1, Photinus pyralis luciferase (Photinus pyralis, UniProt P08659); assay: Bioluminescence of nucleotides with firefly luciferase in pyrophosphate assay buffer (ELIDA reagent); settings: for wavelength of maximal light emission: pH 7.8
T1 construct: purchased Promega
Description: Pyrophosphate assay buffer (PAB) was made up as follows:
50 μl of PAB was aliquoted into two wells of a 96 well plate. To one sample was added 1 μl of 0.1 mM sodium pyrophosphate; to the other was added 1 μl of 2 mM dATP. The resulting light emission was observed using a Syngene light-box with a black and white CCD camera integrating the signal over 5 seconds. […] The amount of dATP added is equivalent to ⅕ the amount used in a standard 50 μl PCR reaction.
A green filter was placed in front of the lens of the CCD camera and the sample above was observed once more.

luciferase [2] = molecular target: T2, luciferase (Photinus pyralis, UniProt P08659); assay: Signal:background ratio in ELIDA assays of PCR reactions; settings: unreacted PCR mix vs 30 cycles, compared to dATP
Description: PCR reactions were set up as in Example 2 except that only 0.5 pg of the test plasmid pPw601 a was used. Further, the PCR reactions contained either d-α-SATP or dATP. The light emission from an ELIDA assay of unreacted PCR mixes containing either d-α-SATP or dATP was measured as in Example 6. A further ELIDA assay was performed on the same samples after they had completed 30 cycles of a PCR reaction (and had produced the same amount of amplicon as judged by agarose gel analysis). The ratio of the light emission from the unreacted PCR mix to the reacted PCR mix is shown in FIG. 3 (showing signal:background ratio).

luciferase [3] = molecular target: T2, luciferase; assay: Stability of light emission from ELIDA assays of PCR reactions; settings: four consecutive readings over 1 minute; for light emission over time: 5 and 35 cycle PCR samples
Description: PCR reactions were set up and run as in Example 5. The analysis of each PCR sample was initiated by mixing 1 μl of the PCR reaction with 20 μl of ELIDA assay buffer. The light emitted from the sample was then measured with a Labsystems Luminoscan Ascent luminometer in a series of four consecutive light readings over a period of 1 minute. Each light reading represented the light emission from the sample integrated over a ten-second interval (using the machine's default PMT voltage).
This effect becomes greater with the number of PCR cycles. […] As a result, the magnitude of the differential between the readings for 5 and 35 cycles over the four readings taken, is almost constant (only 5% difference).

Taq polymerase = molecular target: T3, Taq polymerase (Thermus aquaticus, UniProt P19821); assay: PCR using the dATP analogue, product seen by agarose gel electrophoresis
T3 construct: purchased Roche
Description: A 50 μl PCR reaction contained the following:
The sequences of primers 1 and 2 and the test plasmid are given in SEQ ID Nos. 1, 2 and 3, respectively. The size of the expected PCR product was 158 bp.
Taq polymerase was added to the sample after heating to 95° for 30 seconds. The following cycling parameters were implemented on a Perkin-Elmer GeneAmp PCR system 2400.
10 μl of the resulting PCR reaction was loaded onto a […] containing ethidium bromide alongside a molecular weight marker. The gel was run at 60V for 50 minutes and then visualised under a transilluminator.

T1 sequence (P08659 whole entry): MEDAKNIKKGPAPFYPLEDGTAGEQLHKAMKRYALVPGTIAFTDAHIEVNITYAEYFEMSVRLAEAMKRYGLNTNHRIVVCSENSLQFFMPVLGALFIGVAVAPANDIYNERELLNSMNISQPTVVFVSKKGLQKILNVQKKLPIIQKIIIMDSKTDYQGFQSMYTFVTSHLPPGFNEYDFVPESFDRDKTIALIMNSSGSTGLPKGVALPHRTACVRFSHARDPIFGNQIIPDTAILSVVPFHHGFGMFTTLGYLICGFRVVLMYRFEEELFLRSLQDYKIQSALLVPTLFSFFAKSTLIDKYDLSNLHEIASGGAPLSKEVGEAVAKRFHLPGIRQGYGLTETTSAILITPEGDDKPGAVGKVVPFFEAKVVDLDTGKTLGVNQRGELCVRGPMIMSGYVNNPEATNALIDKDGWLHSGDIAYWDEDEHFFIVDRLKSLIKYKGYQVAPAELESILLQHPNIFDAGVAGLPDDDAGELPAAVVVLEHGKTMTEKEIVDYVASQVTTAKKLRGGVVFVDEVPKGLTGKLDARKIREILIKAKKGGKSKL
T2 sequence (P08659 whole entry): as above
T3 sequence (P19821 whole entry): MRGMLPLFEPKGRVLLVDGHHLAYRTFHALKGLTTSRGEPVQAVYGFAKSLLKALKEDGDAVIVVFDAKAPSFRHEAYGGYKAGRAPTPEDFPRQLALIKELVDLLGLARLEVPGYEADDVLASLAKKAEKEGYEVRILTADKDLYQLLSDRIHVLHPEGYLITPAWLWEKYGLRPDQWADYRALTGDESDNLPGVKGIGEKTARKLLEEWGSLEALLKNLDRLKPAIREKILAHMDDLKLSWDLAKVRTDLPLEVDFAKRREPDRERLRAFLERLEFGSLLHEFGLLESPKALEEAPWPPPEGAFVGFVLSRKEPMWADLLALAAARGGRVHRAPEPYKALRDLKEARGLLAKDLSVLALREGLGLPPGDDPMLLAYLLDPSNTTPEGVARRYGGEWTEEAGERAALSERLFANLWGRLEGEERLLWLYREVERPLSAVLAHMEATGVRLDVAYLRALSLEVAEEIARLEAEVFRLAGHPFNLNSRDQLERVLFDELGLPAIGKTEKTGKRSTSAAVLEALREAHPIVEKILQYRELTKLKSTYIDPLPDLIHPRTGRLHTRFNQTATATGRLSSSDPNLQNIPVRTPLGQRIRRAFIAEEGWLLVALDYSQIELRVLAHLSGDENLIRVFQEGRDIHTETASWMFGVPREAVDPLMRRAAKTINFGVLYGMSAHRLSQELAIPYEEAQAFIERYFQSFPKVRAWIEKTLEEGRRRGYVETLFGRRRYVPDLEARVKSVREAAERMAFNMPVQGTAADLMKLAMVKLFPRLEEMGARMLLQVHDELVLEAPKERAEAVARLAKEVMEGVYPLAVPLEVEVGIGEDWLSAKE

For `Nc1ncnc2c1ncn2[C@@H]1O[C@H](COP(=O)(O)OP(=O)(O)OP(=O)(O)O)[C@@H](O)[C@H]1O` [ATP], the “wavelength of maximal light emission” value [1] was 550 nm.

`Nc1ncnc2c1ncn2[C@H]1C[C@H](O)[C@@H](COP(O)(=S)OP(=O)(O)OP(=O)(O)O)O1` (stereo partly drawn) [d-α-SATP] was tested, and the “signal:background ratio” value (luciferase [2]) was “considerably improves the signal:background ratio”, the “difference in the differential between the readings for 5 and 35 cycles over the four readings” value (luciferase [3]) was 5% and the “light emission over time” value (luciferase [3]) was “close to constant”. The “PCR product generated (gel)” value (Taq polymerase; used instead of dATP, 30 cycles) was “a PCR product is generated” and the “substrate quality for luciferase relative to dATP” value ([1]; direct reaction with luciferase) was “approximately one-hundred-fold poorer substrate for luciferase than dATP”.

For `Nc1ncnc2c1ncn2[C@H]1C[C@H](O)[C@@H](COP(=O)(O)OP(=O)(O)OP(=O)(O)O)O1` [dATP], the “light emission over time” value (luciferase [3]) was “significant decay in light emission over time”, the “PCR product generated (gel)” value (Taq polymerase; 1/10th the usual concentration of 0.2 mM) was “no PCR product is detected” and the “light emission on addition to pyrophosphate assay buffer” value ([1]; 1 μl of 2 mM in 50 μl PAB, CCD camera, 5 seconds) was “significant light emission”. For the same compound, the “wavelength of maximal light emission” value [1] was 620 nm.

— US20040185457A1, “Method for detecting dna polymerisation” (priority 2001, published 2004)
